# From PMC7759869 (Biomedicines, 2020)
# How the values were obtained:
# FMO1 = target: T1, FMO1 (Homo sapiens, UniProt Q01740); experiment: Oxidation of cabozantinib by recombinant FMO1; format: in vitro ADME; settings: human recombinant enzyme, data not shown
# T1 construct: purchased Gentest Corp., Woburn, MA, USA; host or cells: insect cells (baculovirus)
# T1 sequence (Q01740 1-532): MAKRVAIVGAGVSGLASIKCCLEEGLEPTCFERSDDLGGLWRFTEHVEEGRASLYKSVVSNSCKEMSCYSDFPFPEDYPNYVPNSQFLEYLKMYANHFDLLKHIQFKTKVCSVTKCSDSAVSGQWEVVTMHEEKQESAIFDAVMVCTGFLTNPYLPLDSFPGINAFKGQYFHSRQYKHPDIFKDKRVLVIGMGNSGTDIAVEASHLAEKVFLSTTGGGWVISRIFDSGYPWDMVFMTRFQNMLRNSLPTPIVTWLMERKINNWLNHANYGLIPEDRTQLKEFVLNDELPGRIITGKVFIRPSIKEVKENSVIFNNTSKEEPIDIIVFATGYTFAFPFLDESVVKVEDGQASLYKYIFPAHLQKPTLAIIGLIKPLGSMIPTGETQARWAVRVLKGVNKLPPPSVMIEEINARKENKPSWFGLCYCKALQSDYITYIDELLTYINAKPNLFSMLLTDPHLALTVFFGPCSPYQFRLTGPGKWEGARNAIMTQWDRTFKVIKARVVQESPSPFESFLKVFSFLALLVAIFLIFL
# Description: The purity of all chemicals met the standards of American Chemical Society, unless otherwise noted. […] Microsomes from livers of twelve human donors were obtained from Gentest Corp. (Woburn, MA, USA) (Lot. no. HG43-1, HG103, HG74, HG93, HG24, HG27, HG23, HG32, HK31, HK34, HG03 and HG42). […] Human recombinant enzymes were used in the forms of Supersomes™ and obtained from Corning (Corning, NY, USA). In Supersomes™, microsomal fractions were isolated from insect cells that were transfected with baculovirus constructs containing cDNA of human CYP enzymes (CYP1A1/2, 1B1, 2A6, 2B6, 2C8/9/18/19/, 2D6, 2E1, 3A4). The Supersomes™ also express NADPH:CYP oxidoreductase (POR). However, because they are microsomes (particles of broken endoplasmic reticulum), other enzymes (proteins) of the endoplasmic reticulum membrane (like NADH:cytochrome b5 reductase and cytochrome b5) are also expressed at basal levels in these Supersomes™. We also utilized Supersomes™, which overexpressed cytochrome b5, in a molar ratio of CYP to cytochrome b5 of 1 to 5. In Supersomes™, where cytochrome b5 was not overexpressed (see above), pure cytochrome b5 was added to reach a molar ratio of CYP to cytochrome b5 of 1 to 5. Reconstitution of Supersomes™ with purified cytochrome b5 was performed as described previously. Human recombinant FMOs and AO were also used in the forms of Supersomes™ (Gentest Corp., Woburn, MA, USA).
# CYP3A4 + cyt b5 = target: T2, CYP3A4 + cyt b5 (Homo sapiens, UniProt P08684); experiment: Cabozantinib oxidation by recombinant CYP3A4 in the presence of cyt b5 (Supersomes); format: in vitro ADME; settings: Supersomes with cyt b5 vs without, 50 µM cabozantinib
# T2 construct: purchased Corning (Corning, NY, USA); host or cells: insect cells (baculovirus)
# T2 sequence (P08684 whole entry): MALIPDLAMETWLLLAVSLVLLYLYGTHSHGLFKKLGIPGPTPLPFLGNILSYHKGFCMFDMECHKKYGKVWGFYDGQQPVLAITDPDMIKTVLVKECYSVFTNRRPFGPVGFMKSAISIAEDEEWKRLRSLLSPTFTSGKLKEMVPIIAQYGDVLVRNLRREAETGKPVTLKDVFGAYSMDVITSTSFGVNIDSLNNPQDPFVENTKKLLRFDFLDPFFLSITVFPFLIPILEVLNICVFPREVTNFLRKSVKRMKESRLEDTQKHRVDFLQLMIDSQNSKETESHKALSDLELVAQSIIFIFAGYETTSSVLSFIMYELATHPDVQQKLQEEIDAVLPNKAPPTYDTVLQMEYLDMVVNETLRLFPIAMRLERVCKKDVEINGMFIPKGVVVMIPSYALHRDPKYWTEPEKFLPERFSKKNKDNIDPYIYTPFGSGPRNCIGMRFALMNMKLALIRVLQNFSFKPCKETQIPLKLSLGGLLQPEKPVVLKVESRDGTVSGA
# Description: Cabozantinib was from MedChemExpress (Monmouth Junction, NJ, USA). Standard of cabozantinib N-oxide was purchased from Toronto Research Chemicals (Toronto, Canada). Ketoconazole, NADPH and other chemicals were all purchased from Merck (Darnstadt, Germany). The purity of all chemicals met the standards of American Chemical Society, unless otherwise noted. Male human hepatic microsomes (pooled sample) (sample LOT: 3043885) were from Gentest Corp. (Woburn, MA, USA). Microsomes from livers of twelve human donors were obtained from Gentest Corp. (Woburn, MA, USA) (Lot. no. HG43-1, HG103, HG74, HG93, HG24, HG27, HG23, HG32, HK31, HK34, HG03 and HG42). Each human microsomal sample was characterized for CYP, FMO, total protein contents and specific CYP activities by Gentest Corp. and reanalyzed by us by assays described in the protocols of Gentest Corp. Our data were similar to those reported by Gentest Corp. (Table 1). Human recombinant enzymes were used in the forms of Supersomes™ and obtained from Corning (Corning, NY, USA). In Supersomes™, microsomal fractions were isolated from insect cells that were transfected with baculovirus constructs containing cDNA of human CYP enzymes (CYP1A1/2, 1B1, 2A6, 2B6, 2C8/9/18/19/, 2D6, 2E1, 3A4). The Supersomes™ also express NADPH:CYP oxidoreductase (POR). However, because they are microsomes (particles of broken endoplasmic reticulum), other enzymes (proteins) of the endoplasmic reticulum membrane (like NADH:cytochrome b5 reductase and cytochrome b5) are also expressed at basal levels in these Supersomes™. We also utilized Supersomes™, which overexpressed cytochrome b5, in a molar ratio of CYP to cytochrome b5 of 1 to 5. In Supersomes™, where cytochrome b5 was not overexpressed (see above), pure cytochrome b5 was added to reach a molar ratio of CYP to cytochrome b5 of 1 to 5. Reconstitution of Supersomes™ with purified cytochrome b5 was performed as described previously. Human recombinant FMOs and AO were also used in the forms of Supersomes™ (Gentest Corp., Woburn, MA, USA). These microsomal fractions were isolated from insect cells that are transfected with baculovirus constructs containing cDNA of human FMO1, FMO3, FMO5 or AO enzymes.
# The reaction was initiated by adding NADPH. In control incubations, either microsomes or CYP (FMO, AO) or NADPH were omitted. […] The reaction was stopped by extraction with ethyl acetate (2 × 1 mL). […] Cabozantinib metabolites separated by HPLC were characterized by mass spectroscopy (see further details below).
# [1] = parameters: concentration or dose not given beside the values; settings: metastatic renal cell carcinoma patients; cited from earlier work
smiles,measurement,setting,value
"COc1cc2nccc(Oc3ccc(NC(=O)C4(C(=O)Nc5ccc(F)cc5)CC4)cc3)c2cc1OC [cabozantinib, N′1-{4-[(6,7-dimethoxyquinolin-4-yl)oxy]phenyl}-N1-(4-fluorophenyl)cyclopropane-1,1-dicarboxamide]",Oxidation of cabozantinib by FMO 1,FMO1,ineffective
same,Increase of oxidation / metabolite formation by co-expression of cyt b5 with CYP3A4,CYP3A4 + cyt b5,more than 2.9 fold
same,"Plasma concentration, mean",[1],973 ± 501 ng/mL
